According to ChEMBL document CHEMBL3784926, “Concise total synthesis of water soluble metatacarboline A, C, D, E and F and its anticancer activity” (Eur J Med Chem, 2016):
Values after ≈ are worked out from the molar mass of the structure shown. Active and inactive are the calls of the source. The calls are words filed in the database; no cut-off is given here.

How the values were obtained:
C6 [1] = experiment: Antiproliferative activity against rat C6 cells assessed as cell viability after 24 hrs by MTT assay; assay type: functional, cell-based; conditions: for IC50: C6, 24 h
C6 [2] = experiment: Cell cycle arrest in rat C6 cells assessed as accumulation at sub G0/G1 phase at 100 uM after 24 hrs by propidium iodide staining based flow cytometric analysis (reference value: 0.6 %); assay type: functional
C6 [3] = experiment: Cell cycle arrest in rat C6 cells assessed as accumulation at sub G0/G1 phase at 200 uM after 24 hrs by propidium iodide staining based flow cytometric analysis (reference value: 0.6 %); assay type: functional
C6 [4] = experiment: Cell cycle arrest in rat C6 cells assessed as accumulation at sub G0/G1 phase at 400 uM after 24 hrs by propidium iodide staining based flow cytometric analysis (reference value: 0.6 %); assay type: functional
C6 [5] = experiment: Induction of apoptosis in rat C6 cells assessed as DNA fragmentation at 300 uM after 24 hrs by TUNEL assay relative to control; assay type: functional, cell-based
C6 [6] = experiment: Induction of apoptosis in rat C6 cells assessed as decrease in Bcl2 expression at 100 to 600 uM after 24 hrs by Western blot analysis; assay type: functional, cell-based
C6 [7] = experiment: Induction of apoptosis in rat C6 cells assessed as decrease in Bclxl expression at 100 to 600 uM after 24 hrs by Western blot analysis; assay type: functional, cell-based
C6 [8] = experiment: Induction of apoptosis in rat C6 cells assessed as decrease in pro-caspase 8 expression at 100 to 600 uM after 24 hrs by Western blot analysis; assay type: functional, cell-based
C6 [9] = experiment: Induction of apoptosis in rat C6 cells assessed as cleaved caspase 3 at 100 to 600 uM after 24 hrs by Western blot analysis; assay type: functional, cell-based
C6 [10] = experiment: Induction of apoptosis in rat C6 cells assessed as PARP cleavage at 100 to 600 uM after 24 hrs by Western blot analysis; assay type: functional, cell-based
C6 [11] = experiment: Induction of apoptosis in rat C6 cells assessed as upregulation of p53 expression at 100 to 600 uM after 24 hrs by Western blot analysis; assay type: functional, cell-based
[12] = Solubility of the compound in water at 0.01 g after 5 mins; assay type: physicochemical
C6 [13] = experiment: Antiproliferative activity against rat C6 cells assessed as inhibition of colony forming ability at 40 uM after 7 days by methylene blue staining; values are per cent of control; conditions: C6, 168 h
C6 [14] = experiment: Antiproliferative activity against rat C6 cells assessed as inhibition of colony forming ability at 120 uM after 7 days by methylene blue staining; values are per cent of control; conditions: C6, 168 h
C6 [15] = experiment: Antiproliferative activity against rat C6 cells assessed as inhibition of colony forming ability at 200 uM after 7 days by methylene blue staining; values are per cent of control; conditions: C6, 168 h
C6 [16] = experiment: Antiproliferative activity against rat C6 cells assessed as inhibition of colony forming ability at 400 uM after 7 days by methylene blue staining; values are per cent of control; conditions: C6, 168 h
C6 [17] = experiment: Antiproliferative activity against rat C6 cells assessed as inhibition of colony forming ability at 800 uM after 7 days by methylene blue staining; values are per cent of control; conditions: C6, 168 h
C6 [18] = experiment: Cell cycle arrest in rat C6 cells assessed as accumulation at G2/M phase at 40 uM after 24 hrs by propidium iodide staining based flow cytometric analysis (reference value: 20.2%); assay type: functional
C6 [19] = experiment: Cell cycle arrest in rat C6 cells assessed as accumulation at G2/M phase at 120 uM after 24 hrs by propidium iodide staining based flow cytometric analysis (reference value: 20.2%); assay type: functional
C6 [20] = experiment: Cell cycle arrest in rat C6 cells assessed as accumulation at G2/M phase at 200 uM after 24 hrs by propidium iodide staining based flow cytometric analysis (reference value: 20.2%); assay type: functional
C6 [21] = experiment: Cell cycle arrest in rat C6 cells assessed as accumulation at G2/M phase at 400 uM after 24 hrs by propidium iodide staining based flow cytometric analysis (reference value: 20.2%); assay type: functional
C6 [22] = experiment: Antiproliferative activity against rat C6 cells assessed as inhibition of colony forming ability at 600 uM after 7 days by methylene blue staining; values are per cent of control; conditions: C6, 168 h
[23] = Solubility of the compound in water after 5 mins; assay type: physicochemical

C[C@H](O)[C@H](NC(=O)c1cc2c([nH]c3ccccc32)c(CCC(=O)N2CCC[C@H]2C(=O)O)n1)C(=O)O
Activity (C6 [1]): Dose-dependent effect | IC50 (C6 [1]): 150 µM | Activity (C6 [2]): 4.7% | Activity (C6 [3]): 43.7% | Activity (C6 [4]): 95.1% | Activity (C6 [5]): Active | Activity (C6 [6]): Active | Activity (C6 [7]): Active | Activity (C6 [8]): Active | Activity (C6 [9]): Active | Activity (C6 [10]): Active | Activity (C6 [11]): Active | solubility [12]: soluble | colony formation (% of control) at 40 µM (C6 [13]): 85% | colony formation (% of control) at 120 µM (C6 [14]): 75% | colony formation (% of control) at 200 µM (C6 [15]): 45% | colony formation (% of control) at 400 µM (C6 [16]): 25% | colony formation (% of control) at 800 µM (C6 [17]): 5%

O=C(N[C@@H](CO)C(=O)O)c1cc2c([nH]c3ccccc32)c(CCC(=O)N2CCC[C@H]2C(=O)O)n1
Activity (C6 [1]): Dose-dependent effect | solubility [12]: soluble

CC(C)[C@H](NC(=O)c1cc2c([nH]c3ccccc32)c(CCC(=O)N2CCC[C@H]2C(=O)O)n1)C(=O)O
Activity (C6 [1]): Dose-dependent effect | IC50 (C6 [1]): 250 µM | Activity (C6 [18]): 24.4% | Activity (C6 [19]): 22.8% | Activity (C6 [20]): 18.3% | Activity (C6 [21]): 23.9% | solubility [12]: soluble | colony formation (% of control) at 200 µM (C6 [15]): 55% | colony formation (% of control) at 400 µM (C6 [16]): 35% | colony formation (% of control) at 600 µM (C6 [22]): 15%

O=C(O)c1cc2c([nH]c3ccccc32)c(CCC(=O)N2CCC[C@H]2C(=O)O)n1
Activity (C6 [1]): Dose-dependent effect | solubility at 5 min [23]: 10000 µg/mL (≈ 26.2 mM)

C[C@H](NC(=O)c1cc2c([nH]c3ccccc32)c(CCC(=O)N2CCC[C@H]2C(=O)O)n1)C(=O)O
Activity (C6 [1]): Dose-dependent effect | solubility [12]: soluble
